Values of other authors in US12194143B2, “Mycophenolate oral suspension” (LIQMEDS WORLDWIDE LIMITED, priority 2018, dated 2025).
Structures can show the parent of a compound that is named as a salt. Where two headings read alike, the source gives them in different places.

solubility (in 95% ethanol): soluble | solubility (in methanol): soluble | solubility (in water): slightly soluble
Compound: C[C@@H](NCCCc1cccc(C(F)(F)F)c1)c1cccc2ccccc12 [Cinacalcet hydrochloride, N-[1-(R)-(−)-(1-naphthyl)ethyl]-3-[3-(trifluoromethyl)phenyl]-1-aminopropane]
